“And” between values parts separate entries of the source, which are not always exact repeats. Identical values can stand only once.
Experiment: xn = mol fraction of the nth substance listed

CC(C)OCCO + CO
298.15 K, 101.33 kPa
Settings | viscosity [mPa·s]
x1 = 0.012 | 0.569
x1 = 0.0276 | 0.602
x1 = 0.05 | 0.637
x1 = 0.0732 | 0.684
x1 = 0.1063 | 0.749
x1 = 0.1319 | 0.795
x1 = 0.1558 | 0.842
x1 = 0.1871 | 0.897
x1 = 0.2119 | 0.946
x1 = 0.2575 | 1.036
x1 = 0.2683 | 1.056
x1 = 0.3161 | 1.145
x1 = 0.3643 | 1.235
x1 = 0.412 | 1.324
x1 = 0.4685 | 1.415
x1 = 0.5152 | 1.485
x1 = 0.5447 | 1.529
x1 = 0.6149 | 1.624
x1 = 0.6869 | 1.719
x1 = 0.7416 | 1.789
x1 = 0.7775 | 1.832
x1 = 0.8335 | 1.912
x1 = 0.8955 | 1.975
x1 = 0.9189 | 2.003
x1 = 0.9415 | 2.032
x1 = 0.9701 | 2.064

c1ccc2c(c1)CCCC2 + Cc1ccccc1
101.3 kPa
Settings | viscosity
298 K, x2 = 0.2 | 1.55 mPa·s
298.1 K, x2 = 0.4 | 1.133 mPa·s
298.2 K, x2 = 0.6 | 0.9208 mPa·s
298.2 K, x2 = 0.8 | 0.7036 mPa·s
303.2 K, x2 = 0.5 | 0.9625 mPa·s
308.2 K, x2 = 0.4 | 0.9772 mPa·s
308.2 K, x2 = 0.6 | 0.8034 mPa·s
308.2 K, x2 = 0.8 | 0.6177 mPa·s and 0.6155 mPa·s
313.1 K, x2 = 0.2 | 1.209 mPa·s
313.1 K, x2 = 0.5 | 0.8373 mPa·s
318.1 K, x2 = 0.4 | 0.8532 mPa·s
318.2 K, x2 = 0.6 | 0.7034 mPa·s
318.2 K, x2 = 0.8 | 0.553 mPa·s
323.1 K, x2 = 0.5 | 0.7376 mPa·s

CCCCOCCO + c1ccccc1
viscosity [mPa·s], 101 kPa
Settings | 298.15 K | 308.15 K
x1 = 0.0553 | 0.648 | 0.562
x1 = 0.1496 | 0.736 | 0.631
x1 = 0.2488 | 0.845 | 0.717
x1 = 0.3504 | 0.978 | 0.821
x1 = 0.4555 | 1.144 | 0.949
x1 = 0.4995 | 1.223 | 1.011
x1 = 0.5504 | 1.323 | 1.088
x1 = 0.6482 | 1.543 | 1.258
x1 = 0.7535 | 1.83 | 1.479
x1 = 0.8483 | 2.143 | 1.718
x1 = 0.9556 | 2.575 | 2.048

O=P([O-])([O-])[O-].[H+].[K+].[K+] + O
viscosity [mPa·s], 101 kPa
Settings | x1 = 0.0018 | x1 = 0.0054 | x1 = 0.0089 | x1 = 0.012 | x1 = 0.016
298.15 K | 0.931 | 1.001 | 1.091 | 1.203 | 1.329
303.15 K | 0.8465 | 0.9207 | 0.9963 | – | 1.204
308.15 K | 0.7552 | 0.814 | 0.8844 | 0.9818 | 1.081

Oc1cccc(Cl)c1 + CCCCCOC(C)=O
Settings | viscosity [mPa·s]
298.15 K, 101 kPa, x1 = 0.5 | 1.244

CCCCOCCO + Cc1cccc(C)c1
viscosity [mPa·s], 101 kPa
Settings | 298.15 K | 308.15 K
x1 = 0.056 | 0.625 | 0.534
x1 = 0.152 | 0.711 | 0.602
x1 = 0.2496 | 0.813 | 0.686
x1 = 0.3506 | 0.941 | 0.786
x1 = 0.4512 | 1.095 | 0.908
x1 = 0.5022 | 1.185 | 0.979
x1 = 0.5529 | 1.284 | 1.056
x1 = 0.6487 | 1.501 | 1.225
x1 = 0.7505 | 1.781 | 1.442
x1 = 0.8511 | 2.122 | 1.704
x1 = 0.9549 | 2.56 | 2.037

Source: the CheMixHub viscosity set
